Results from PubChem BioAssay (NCI).
“And” between values parts separate entries of the source, which are not always exact repeats. Equal entries are not always repeated.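 Assay format: 96-well plates, 48-hour exposure. GI50 = concentration required for 50% inhibition of growth. TGI is the concentration that stops growth completely.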

Key:
Assay in all cases: NCI anticancer screen, dose series, 48 h
[1] = tested on: M19-MEL melanoma
[2] = tested on: KM20L2 colon
[3] = tested on: RXF-631 renal
[4] = tested on: SNB-78 CNS
[5] = tested on: DLD-1 colon
[6] = tested on: DMS 273 small cell lung
[7] = tested on: T-47D breast
[8] = tested on: MDA-MB-435
[9] = tested on: MDA-N

| SMILES | TGI [1] [µM] | TGI [2] [µM] | TGI [3] [µM] | TGI [4] [µM] | TGI [5] [µM] | TGI [6] [µM] | GI50 [7] | TGI [7] | GI50 [8] | TGI [8] | TGI [9] [µM] |
| --- | --- | --- | --- | --- | --- | --- | --- | --- | --- | --- | --- |
| C[P+](C)(C)C | > 100 | > 100 | > 100 | > 100 | > 100 |  |  |  |  |  |  |
| CCc1cccc(C(C)C)c1NC(=O)CCl | > 100 | > 100 | 37.4 | > 100 | > 100 | > 100 |  |  |  |  |  |
| CC1(C)CCCC2(C)C3C(O)CC2(C)C(O)C31 (configuration not stated) | > 100 | > 100 |  | > 100 | > 100 |  |  |  |  |  |  |
| CNCC/C=C1\c2cc3c(cc2-c2c1c1cc(OC)c(OC)cc1c(=O)n2C)OCO3 |  |  |  |  |  |  | 4.19 µM | 25.5 µM | 0.836 µM | 15 µM |  |
| NCCCCCNc1noc(Cc2c[nH]c3cc(Br)ccc23)n1 |  |  |  |  |  |  | 5.15 µM | 30.1 µM | 0.327 µM | 2.33 µM |  |
| CCOC(=O)C(Cc1c[nH]c2cc(N(CCO)CCO)ccc12)(NC(C)=O)C(=O)OCC |  |  |  |  |  |  | 472 µM | > 1000 µM | 34.6 µM and 50.1 µM | 200 µM |  |
| Cn1c(=O)nc2n(-c3ccc(Cl)cc3)c(-c3ccccc3)c(-c3ccccc3)nc-2c1=O |  | > 100 | > 100 | > 100 | > 100 | 59.3 |  |  |  |  |  |
| CC(C)(C)c1cc(C(=O)Nc2ccc(C(=O)NCCN)cc2)cc(C(C)(C)C)c1 |  |  |  |  |  |  | 2.07 µM | 5.58 µM | 1.52 µM | 3.09 µM |  |
| CCCCCCCCOCC(O)CO (configuration not stated) | > 100 | > 100 | > 100 | > 100 | > 100 | > 100 |  |  |  |  |  |
| Cc1cccc(C)c1NC(=O)CCC/C(CC(=O)c1ccc(F)cc1)=N\NC(=O)C(=O)NN | > 100 | > 100 | > 100 | > 100 | > 100 | > 100 |  |  |  |  |  |
| Nc1ccc(-c2cc(C(=O)Nc3nccs3)[nH]c(=S)n2)cc1 | > 100 | > 100 |  | > 100 | > 100 |  |  |  |  |  |  |
| CN1CCN(c2ccc(OC(F)(F)F)c(Nc3ncc4c(n3)-c3c(c(C(N)=O)nn3CCO)CC4)c2)CC1 |  |  |  |  |  |  | 0.944 µM and 0.538 µM | 40.8 µM and > 10 µM | 0.0165 µM and 0.0188 µM | 0.0542 µM and 0.0634 µM |  |
| Cc1c(Cl)c(=O)oc2cc(OC/C=C3\CCC(=O)O3)ccc12 |  |  |  |  |  |  | 13.6 µM | 36.2 µM | 25.3 µM | 96.3 µM |  |
| C1OC1CN1CCN(CC2CO2)CC1 (configuration not stated) | > 100 | > 100 |  | > 100 | > 100 | > 100 |  |  |  |  |  |
| CC[C@@]1(OC(=O)C(N)CCCCN)C(=O)OCc2c1cc1n(c2=O)Cc2cc3ccccc3nc2-1 (some centres not stated) | 0.509 | 12.5 |  | > 100 | > 27.1 | 0.366 |  | 0.935 µM |  | 1.26 µM | 4.44 |
| CCN(CC)c1c(-c2ccccc2)n[nH]c1C(=O)OC |  |  |  |  |  |  | 17.5 µM | 64.8 µM | 20.1 µM | 55.6 µM |  |
| Cc1cc(C(=O)/C=C/c2ccc[nH]2)ccc1-n1ccc(C(F)(F)F)n1 |  |  |  |  |  |  | 4.78 µM | > 100 µM | 35.5 µM | > 100 µM |  |

| SMILES | TGI [1] [µM] | TGI [2] [µM] | TGI [3] [µM] | TGI [4] [µM] | TGI [5] [µM] | TGI [6] [µM] | GI50 [7] | TGI [7] | GI50 [8] | TGI [8] | TGI [9] [µM] |
| --- | --- | --- | --- | --- | --- | --- | --- | --- | --- | --- | --- |
| CN(C)C(=O)OCc1nc2c(N3CCOCC3)nc(-c3ccccc3)nc2n1C |  |  |  |  |  |  | 1.85 µM | 4.62 µM | 0.891 µM | 2.27 µM |  |
| Cc1cc(-c2nnc(/C=C/c3ccc4c(c3)OCO4)o2)n[nH]1 |  |  |  |  |  |  | 22 µM | > 50 µM | 0.915 µM | 2.52 µM |  |
| C[C@]12CC[C@@H]3c4ccc(O)cc4CC[C@H]3[C@@H]1CC[C@@H]2NS(=O)(=O)c1ccc(Br)cc1 |  |  |  |  |  |  | 3.35 µM | 10.3 µM | 1.84 µM | 3.97 µM |  |
| C=CC(COC(=O)C(C)(C)OC(C)=O)c1ccc(OC(=O)C(C)C)c(OC)c1 (configuration not stated) |  |  |  |  |  |  |  | > 37.2 µM |  | 27.8 µM | 14 |
| O=C1Nc2cc(-c3cccc(O)c3)ccc2/C1=C/c1ccc[nH]1 |  |  |  |  |  |  | 0.17 µM | 0.472 µM | 0.391 µM | 1.66 µM |  |
| O=[P+](O)c1ccccn1 | > 100 | > 100 |  | > 100 | > 100 | > 100 |  |  |  |  |  |
| Cc1ccc(S(=O)(=O)OCC#CCOS(=O)(=O)c2ccc(C)cc2)cc1 |  |  |  |  |  |  | 1.94 µM | 4.26 µM | 1.9 µM | 4.3 µM |  |
| Cc1ccc(S(=O)(=O)N/N=C(\c2nc3ccc([N+](=O)[O-])cc3[nH]c2=O)C(O)c2ccc([N+](=O)[O-])cc2)cc1 (configuration not stated) | > 100 | > 100 |  | > 100 | > 100 | > 100 |  |  |  |  |  |
| NC(=S)N=Nc1c(O)[nH]c2c(Cl)cc(Cl)cc12 |  |  |  |  |  |  |  |  |  | 34 µM | 35.1 |
| CS(=O)(=O)Nc1cc(-c2ccc3ncnc(Nc4ccc(F)c(Cl)c4)c3c2)cnc1Cl |  |  |  |  |  |  | 0.0323 µM and 0.0901 µM | 0.437 µM and 0.892 µM | 0.605 µM and 0.537 µM | 7.03 µM and 4.96 µM |  |
| O=C(Nc1cccc(-n2cc(-c3ccncc3)c(-c3ccc(O)c(Cl)c3)n2)c1)c1ccc2c(c1)OCCO2 |  |  |  |  |  |  | 3.44 µM | > 100 µM | > 100 µM | > 100 µM |  |
| Cc1cc(N(CCC#N)CCC#N)ccc1N=Nc1cc(Cl)ccc1Cl | 26.6 |  |  | 22 | 26.1 | 29.6 |  |  |  |  |  |
| O=C1C(=C2CCCC2)CCC1CN1CCCCC1 (configuration not stated) | > 100 | 32.9 |  | 41.4 |  |  |  |  |  |  |  |
| CC(C)(C)OP(=O)(OC(C)(C)C)C(O)c1ccc(/C=C(\C#N)C(N)=O)cc1 (configuration not stated) | > 100 | > 100 |  | > 100 | > 100 | > 100 |  |  |  |  |  |
| O=C(NCCc1ccccc1)Nc1ccc2cc3ccc(NC(=O)NCCc4ccccc4)cc3nc2c1 |  |  |  |  |  |  | 0.983 µM | 2.31 µM | 0.813 µM | 2.13 µM |  |
| OB(O)c1ccccc1C#Cc1ccccc1B(O)O |  |  |  |  |  |  |  | 83.6 µM |  | 49 µM | 58.4 |
| CC1=C(/C=C/C(=O)CC(=O)/C=C/C2=C(C)CCCC2(C)C)C(C)(C)CCC1 |  |  |  |  |  |  | 41.5 µM | > 100 µM | 38.1 µM | > 100 µM |  |
